In patent US8729273B2, “Compounds effective as xanthine oxidase inhibitors, method for preparing the same, and pharmaceutical composition containing the same” (LG Life Sciences Ltd., priority 2009, dated 2014):

Biological target: Xanthine oxidase originated from bovine milk (Bos taurus (Bovine), UniProt P80457)
Test: Xanthine oxidase inhibition activity (initial velocity of uric acid formation)
Type: biochemical
Conditions: 3 min incubation with test compound, substrate xanthine
Method: Xanthine oxidase originated from bovine milk was incubated for 3 min with test compounds, and the initial velocity of uric acid formation was determined by adding the substrate xanthine. The initial velocity of test compound at each concentration was converted to % inhibition rate on the basis of the initial velocity under the absence of the inhibitor, thereby the inhibitor concentration needed for 50% inhibition was calculated as IC50 values. According to the present invention, compounds which show IC50 values against xanthine oxidase from bovine milk in the level of nM were developed.

Xanthine oxidase originated from bovine milk, sequence (P80457 whole entry): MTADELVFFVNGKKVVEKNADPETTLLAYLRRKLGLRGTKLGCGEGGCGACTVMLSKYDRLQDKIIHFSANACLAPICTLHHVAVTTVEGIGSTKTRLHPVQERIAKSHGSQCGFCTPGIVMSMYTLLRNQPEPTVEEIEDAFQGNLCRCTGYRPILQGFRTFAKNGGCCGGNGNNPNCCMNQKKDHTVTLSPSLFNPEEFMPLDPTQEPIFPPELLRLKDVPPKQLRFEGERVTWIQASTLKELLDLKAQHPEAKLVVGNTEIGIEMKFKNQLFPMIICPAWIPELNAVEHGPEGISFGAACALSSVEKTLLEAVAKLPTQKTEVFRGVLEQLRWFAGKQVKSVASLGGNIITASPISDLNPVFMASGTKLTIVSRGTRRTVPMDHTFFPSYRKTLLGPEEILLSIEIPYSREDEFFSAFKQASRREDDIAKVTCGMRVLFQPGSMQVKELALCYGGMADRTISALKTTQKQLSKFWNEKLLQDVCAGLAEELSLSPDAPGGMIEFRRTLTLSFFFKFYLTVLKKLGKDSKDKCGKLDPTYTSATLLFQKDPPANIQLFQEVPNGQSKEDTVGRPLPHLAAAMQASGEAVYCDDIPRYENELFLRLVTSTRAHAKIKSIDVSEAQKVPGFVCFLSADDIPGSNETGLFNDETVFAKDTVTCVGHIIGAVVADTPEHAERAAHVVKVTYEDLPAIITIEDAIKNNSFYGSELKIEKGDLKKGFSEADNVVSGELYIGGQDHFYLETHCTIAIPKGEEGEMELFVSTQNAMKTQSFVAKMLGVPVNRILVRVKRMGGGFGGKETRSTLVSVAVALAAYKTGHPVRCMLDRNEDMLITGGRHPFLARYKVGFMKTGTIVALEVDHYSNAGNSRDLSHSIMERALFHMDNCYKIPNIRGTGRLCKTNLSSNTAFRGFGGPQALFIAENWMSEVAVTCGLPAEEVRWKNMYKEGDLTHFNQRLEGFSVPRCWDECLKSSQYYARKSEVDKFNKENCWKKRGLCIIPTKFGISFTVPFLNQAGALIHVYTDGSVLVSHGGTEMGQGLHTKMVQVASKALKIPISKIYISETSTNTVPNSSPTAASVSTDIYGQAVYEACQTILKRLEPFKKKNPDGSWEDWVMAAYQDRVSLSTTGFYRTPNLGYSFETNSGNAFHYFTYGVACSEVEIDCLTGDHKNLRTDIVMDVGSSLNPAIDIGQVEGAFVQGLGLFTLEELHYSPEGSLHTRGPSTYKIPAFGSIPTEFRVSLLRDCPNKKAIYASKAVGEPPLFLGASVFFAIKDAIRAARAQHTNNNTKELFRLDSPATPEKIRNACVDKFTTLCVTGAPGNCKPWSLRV

Row | SMILES | IC50 [nM]
1 | CC(C)n1cc(C#N)c2cc(-n3cc(C(=O)O)cn3)ccc21 [Example 1, 1-(3-cyano-1-isopropyl-indol-5-yl)pyrazole-4-carboxylic acid] | 3.4
2 | N#Cc1cn(CC2CC2)c2ccc(-n3cc(C(=O)O)cn3)cc12 [Example 2, 1-[3-cyano-1-(cyclopropylmethyl)indol-5-yl]pyrazole-4-carboxylic acid] | 2.8
3 | N#Cc1cn(C2CC2)c2ccc(-n3cc(C(=O)O)cn3)cc12 [Example 3, 1-[3-cyano-1-cyclopropyl-indol-5-yl]pyrazole-4-carboxylic acid] | 6
4 | CC(C)Cn1cc(C#N)c2cc(-n3cc(C(=O)O)cn3)ccc21 [Example 4, 1-(3-cyano-1-isobutyl-indol-5-yl)pyrazole-4-carboxylic acid] | 4.5
5 | CC(C)(C)Cn1cc(C#N)c2cc(-n3cc(C(=O)O)cn3)ccc21 [Example 5, 1-[3-cyano-1-(2,2-dimethylpropyl)indol-5-yl]pyrazole-4-carboxylic acid] | 5
6 | COCCn1cc(C#N)c2cc(-n3cc(C(=O)O)cn3)ccc21 [Example 6, 1-[3-cyano-1-(2-methoxyethyl)indol-5-yl]pyrazole-4-carboxylic acid] | 3.8
7 | CCC(C)n1cc(C#N)c2cc(-n3cc(C(=O)O)cn3)ccc21 (centres unmarked) [Example 7, 1-(3-cyano-1-sec-butyl-indol-5-yl)-pyrazole-4-carboxylic acid] | 6.7
8 | N#Cc1cn(C2CCC2)c2ccc(-n3cc(C(=O)O)cn3)cc12 [Example 8, 1-[3-cyano-1-cyclobutyl-indol-5-yl]pyrazole-4-carboxylic acid] | 6.9
9 | N#Cc1cn(C2CCCC2)c2ccc(-n3cc(C(=O)O)cn3)cc12 [Example 9, 1-(3-cyano-1-cyclopentyl-indol-5-yl)-pyrazole-4-carboxylic acid] | 4.6
10 | CC(CF)n1cc(C#N)c2cc(-n3cc(C(=O)O)cn3)ccc21 (centres unmarked) [Example 10, 1-[3-cyano-1-(1-fluoropropan-2-yl)-indol-5-yl]-pyrazole-4-carboxylic acid] | 5.2
11 | N#Cc1cn(C2CCOC2)c2ccc(-n3cc(C(=O)O)cn3)cc12 (centres unmarked) [Example 11, 1-[3-cyano-1-(tetrahydrofuran-3-yl)-indol-5-yl]-pyrazole-4-carboxylic acid] | 5.4
12 | Cc1nn(-c2ccc3c(c2)c(C#N)cn3C(C)C)cc1C(=O)O [Example 12, 1-[3-cyano-1-isopropyl-indol-5-yl]-3-methyl-pyrazole-4-carboxylic acid] | 11.6
13 | Cc1nn(-c2ccc3c(c2)c(C#N)cn3CC2CC2)cc1C(=O)O [Example 13, 1-[3-cyano-1-(cyclopropylmethyl)indol-5-yl]-3-methyl-pyrazole-4-carboxylic acid] | 4.8
14 | COCCn1cc(C#N)c2cc(-n3cc(C(=O)O)c(C)n3)ccc21 [Example 14, 1-[3-cyano-1-(2-methoxyethyl)indol-5-yl]-3-methyl-pyrazole-4-carboxylic acid] | 12
15 | CC(C)n1cc(C#N)c2cc(-n3cc(C(=O)O)c(C(F)(F)F)n3)ccc21 [Example 15, 1-[3-cyano-1-isopropyl-indol-5-yl]-3-(trifluoromethyl)pyrazole-4-carboxylic acid] | 29200
16 | N#Cc1cn(CC2CC2)c2ccc(-n3cc(C(=O)O)c(C(F)(F)F)n3)cc12 [Example 16, 1-[3-cyano-1-(cyclopropylmethyl)indol-5-yl]-3-(trifluoromethyl)pyrazole-4-carboxylic acid] | 21300

Row | SMILES | IC50 [nM]
17 | CC(C)n1cc([N+](=O)[O-])c2cc(-n3cc(C(=O)O)cn3)ccc21 [Example 17, 1-(1-isopropyl-3-nitro-indol-5-yl)pyrazole-4-carboxylic acid] | 4.6
18 | CC(C)n1cc(C#N)c2cc(-n3cnc(C(=O)O)n3)ccc21 [Example 18, 1-(3-cyano-1-isopropyl-indol-5-yl)-1,2,4-triazole-3-carboxylic acid] | 13
19 | CC(C)n1cc(C#N)c2cc(-n3cnc(C(=O)O)c3)ccc21 [Example 19, 1-(3-cyano-1-isopropyl-indol-5-yl)imidazole-4-carboxylic acid] | 24
20 | CC(C)n1cc(C#N)c2cc(-c3ccc(C(=O)O)s3)ccc21 [Example 20, 5-(3-cyano-1-isopropyl-indol-5-yl)-thiophene-2-carboxylic acid] | 4.7
21 | CC(C)n1cc(C#N)c2cc(-c3cc(C(=O)O)ccn3)ccc21 [Example 21, 2-(3-cyano-1-isopropyl-indol-5-yl)isonicotinic acid] | 6.2
22 | N#Cc1cn(CC2CC2)c2ccc(-c3cc(C(=O)O)ccn3)cc12 [Example 22, 2-[3-cyano-1-(cyclopropylmethyl)-indol-5-yl]isonicotinic acid] | 2.1
23 | N#Cc1cn(C2CCOC2)c2ccc(-c3cc(C(=O)O)ccn3)cc12 (centres unmarked) [Example 23, 2-[3-cyano-1-(tetrahydrofuran-3-yl)-indol-5-yl]isonicotinic acid] | 10
24 | CC(CF)n1cc(C#N)c2cc(-c3cc(C(=O)O)ccn3)ccc21 (centres unmarked) [Example 24, 2-[3-cyano-1-(1-fluoropropan-2-yl)-indol-5-yl]isonicotinic acid] | 6.2
25 | COCCn1cc(C#N)c2cc(-c3cc(C(=O)O)ccn3)ccc21 [Example 25, 2-[3-cyano-1-(2-methoxyethyl)-indol-5-yl]isonicotinic acid] | 8.5
26 | Cc1cc(C(=O)O)cc(-c2ccc3c(c2)c(C#N)cn3C(C)C)n1 [Example 26, 2-(3-cyano-1-isopropyl-indol-5-yl)-6-methylisonicotinic acid] | 3940
27 | CC(C)n1cc([N+](=O)[O-])c2cc(-c3cc(C(=O)O)ccn3)ccc21 [Example 27, 2-(1-isopropyl-3-nitro-indol-5-yl) isonicotinic acid] | 11
28 | N#Cc1cc(-n2cc(C(=O)O)cn2)cc2cc(-c3ccccc3)[nH]c12 [Example 28, 1-(7-cyano-2-phenyl-1H-indol-5-yl)-pyrazole-4-carboxylic acid] | 24
29 | CC(C)c1cc2cc(-n3cc(C(=O)O)cn3)cc(C#N)c2[nH]1 [Example 29, 1-(7-cyano-2-isopropyl-1H-indol-5-yl)-pyrazole-4-carboxylic acid] | 5
30 | COCc1cc2cc(-n3cc(C(=O)O)cn3)cc(C#N)c2[nH]1 [Example 30, 1-(7-cyano-2-methoxymethyl-1H-indol-5-yl)-pyrazole-4-carboxylic acid] | 17
31 | N#Cc1cc(-n2cc(C(=O)O)cn2)cc2cc[nH]c12 [Example 31, 1-(7-cyano-1H-indol-5-yl)-pyrazole-4-carboxylic acid] | 40

Tested on: plasma uric acid
Test: In vivo xanthine oxidase assay: plasma uric acid-lowering activity in oxonic acid-induced high-uric acid model
Parameters: species or system rat
Conditions: male SD rats, potassium oxonate 300 mg/kg i.p., compound 10 mg/kg oral, plasma at 1 h after oral administration; normal group = 100% inhibition, control group = 0%
Method: Uric Acid-Lowering Activity in Plasma and Liver (Oxonic Acid-Induced High-Uric Acid Model in Rat)
In order to estimate the plasma uric acid-lowering ability of the compounds according to the present invention, experiments were carried out using oxonic acid-induced high-uric acid model.
300 mg/kg of potassium oxonate suspended in 0.8% carboxymethylcellulose solution was intraperitoneally administered to male SD rats of body weight 200 g (control group, compound administration group). 1 h after the oxonic acid administration, 10 mg/kg of test compounds dissolved in polyethyleneglycol 400:ethanol (2:1) solution were orally administered (compound administration group), and after the time period of 1 h blood was sampled. Plasma was separated from thus-obtained blood, and the uric acid concentration in the plasma was quantified utilizing LC-MS/MS. FIGS. 1 and 2 represent the results of plasma uric acid concentration and inhibition rate of plasma uric acid, respectively.
Through the present experiment, excellent plasma uric acid-lowering activity of the compounds according to the present invention was verified.

Row | SMILES | uric acid inhibition rate [%]
32 | CC(C)n1cc(C#N)c2cc(-n3cc(C(=O)O)cn3)ccc21 [Example 1, 1-(3-cyano-1-isopropyl-indol-5-yl)pyrazole-4-carboxylic acid] | 60
